Legend:
[1] = test system: FFA-activated K^+ current of cultured human corneal epithelial cells; assay: Perforated-patch whole-cell patch clamp, pharmacological activators (FFA-activated current); format: cell-based; conditions: for effect on the FFA-activated current: 3 mM TEA or 5 mM Ba^+2
Method: (§1) Single cells for patch clamp analysis of transfected and non-transfected cells were obtained by washing cultured cells free of culture medium using PBS containing 0.53 mM EDTA and then incubating with Ca^+2 and Mg^+2 free Hanks' balanced salt solution (GIBCO) containing 0.05% trypsin and 0.53 mM EDTA for 2 minutes at 37° C. in a 5% CO2 incubator. Loose cells were aspirated into a Pasteur pipette and transferred into a conical tube containing Media 199 (Sigma, St. Louis, Mo.) supplemented with 10% FCS (Sigma, St. Louis, Mo.). Isolated cells were transferred to an inverted microscope mounted with an external stage, placed into an acrylic chamber filled with Ringer's solution, and allowed to settle and attach to the glass bottom.
Macroscopic currents in single cells were examined using the perforated-patch configuration of the whole-cell patch-clamp technique with amphotericin B as the perforating agent. The composition of the patch pipette in millimolar was 145 potassium methanesulfonate, 2.5 NaCl, 2.5 CaCl2, 5 HEPES, and […] amphotericin B. Patch pipettes were fabricated from KG-12 capillary glass, coated with Sylgard (Dow Corning, Midland, Mich.) and fire polished. Currents were recorded at room temperature using a patch-clamp amplifier operated by Gateway 486DX2 computer (Gateway 2000, Sioux City, S. Dak.) loaded with pCLAMP software (Axon 200A, Axon Instruments, Foster City, Calif.) for the generation of voltage-clamp protocols. Current recordings were capacity compensated using the amplifier circuitry, sampled between 2 to 5 kHz, filtered between 1 to 2 kHz, and subsequently analyzed with the software program. Voltage-clamp protocols were repeated at least three times to obtain the average current response to a voltage pulse. Current voltage (I-V) relationships were corrected for the junction potential generated by the pipette solution and the amphotericin B-induced Donnan potential by subtracting the difference between the reversal potential of tail currents measured in symmetrical K^+ solutions and the 0 mV potential.
The tests of examples 1.1, 1.2, and 1.3 were repeated following the addition of 100 μM flufenamic acid (FFA) to the NaCl Ringer's bath.
To determine the ion selectivity of this TEA-sensitive FFA-activated current, cultured human corneal epithelial cells were bathed in NaCl Ringer's solution with 100 μM FFA and a family of instantaneous tail currents was generated. The same cells were then bathed in NaCl Ringer's solution with 100 μM FFA and 3 mM TEA and a second family of instantaneous tail currents was generated. An instantaneous tail I-V plot was obtained by digitally subtracting the instantaneous tail responses determined for the same cell bathed with FFA with and without TEA.

[2] = test system: nonselective cation current of human corneal epithelial cells; assay: Perforated-patch whole-cell patch clamp, nonselective cation current; format: cell-based; conditions: 1 mM external
Method: as §1
Macroscopic currents in single cells were examined using the perforated-patch configuration of the whole-cell patch-clamp technique with amphotericin B as the perforating agent. […] Currents were recorded at room temperature using a patch-clamp amplifier operated by Gateway 486DX2 computer (Gateway 2000, Sioux City, S. Dak.) loaded with pCLAMP software (Axon 200A, Axon Instruments, Foster City, Calif.) for the generation of voltage-clamp protocols. Current recordings were capacity compensated using the amplifier circuitry, sampled between 2 to 5 kHz, filtered between 1 to 2 kHz, and subsequently analyzed with the software program. […]

[3] = test system: endothelium of reconstructed corneas (Na/K ATPase); assay: Endothelial function test: corneal thickness by Optical Coherence Tomography after ouabain; format: cell-based, human; conditions: 10^-4M ouabain in DMEM, 2 hours, silicone oil on epithelium; one set of corneas, preliminary
Excerpt: Ouabain, a cardiac glycoside, inhibits Na/K ATPase, disrupting corneal endothelial functioning. When this is applied to the cornea, the endothelium looses its pumping function, and without this, the cornea will swell (Watsky et al. 1990).
1. Corneas were reconstructed in 30 mm inserts. In this experiment, we have contructed them with the epithelium down.
2. A whole cornea was immersed in DMEM only.
3. At the start of the experiment, medium outside insert was removed and replaced with silicone oil. This essentially seals off the epithelium. Corneal thickness was measured using Optical Coherence Tomography (OCT) (Humphrey Instruments, Carl Zeiss, Inc.). Four readings were taken from each cornea and the average was taken.
4. DMEM within the control insert was replaced with 1 ml of fresh DMEM only. Experimental cornea was treated with 10^-4M ouabain in DMEM.
5. After 2 hours, the corneal thicknesses were measured by OCT.
6. Changes in corneal thickness (if any) was calculated.

[4] = test system: primary HUVECs (Normal Cells); assay: Response to growth factors, primary HUVECs in matrix; format: cell-based, human
Method: Human umbilical vein endothelial cells (HUVECs) were harvested from umbilical cord veins as previously described (Sirois E, et al., Int. J. Artificial Organs 16:609-619, 1993). They were grown on a gelatin-coated dish until confluence in Medium 199 supplemented with 20% FBS, 90 mg/l of heparin, 2 mM of L-glutamine and 100 μg/ml endothelial cell growth supplement (ECGS). Penicillin (100 I.U./ml), streptomycin sulfate (100 μg/ml) and amphotericin B (0.25 μg/ml) were present in medium. After the first passage, FBS concentration was reduced to 10% and ECGS to 20 μg/ml. Cells were subcultured at a ratio of 1:3 or 1:4 and HUVECs from the 2nd to 4th passages were used in our bioassays. Endothelial cell phenotype was verified by the dii-acetylated low-density lipoprotein (diI-Ac-LDL) uptake and positivity to factor VIII-related antigen antibodies by immunocytochemistry. Cultures were incubated in 5% CO2 atmosphere at 37° C. in saturated humidity. The medium was changed every other day.
The virally transfected HUVECs were tested for functionality by their ability to undergo angiogenesis in a three-dimensional fibrin-containing matrix (FIG. 16); and their ability to sequester acetylated low density lipoprotein labelled with 1,1′-dioctadecyl-3,3,3′,3′-tetramethylindocarbocyanine perchlorate (DiI-Ac-LDL; Biomed. Technol. Inc., Stoughton, Mass.), (FIGS. 17 and 18). […]

[5] = test system: immortalized HUVECs (Cell Lines); assay: Response to growth factors, immortalized HUVECs in matrix; format: cell-based, human
Method: For transfection, primary HUVECs were seeded onto uncoated 60 mm tissue culture plates and cultured until 60-70% confluent. They were then immortalized by infection with the HPV16 E6 and E7 genes and selected by G418 resistance as described above.
The virally transfected HUVECs were tested for functionality by their ability to undergo angiogenesis in a three-dimensional fibrin-containing matrix (FIG. 16); and their ability to sequester acetylated low density lipoprotein labelled with 1,1′-dioctadecyl-3,3,3′,3′-tetramethylindocarbocyanine perchlorate (DiI-Ac-LDL; Biomed. Technol. Inc., Stoughton, Mass.), (FIGS. 17 and 18). Immortalized HUVECs can also be maintained in the serum-free medium. As with corneal cell lines, other genes can also be introduced into HUVEC lines. For example, GFP has been introduced by transfection.
During the assays in matrices, cells were grown in serum (10%) supplemented-medium 199 containing heparin, L-glutamine or modified glutamine such as L-Alanyl-L-Glutamine (GlutaMAX™, GIBCO) and antibiotics at the same concentration as described above, without ECGS, but with 50 ng/ml of FGF-2. Serum-free medium has also been used.

reconstructed corneas [6] = assay: Live-dead staining of reconstructed corneas after chemical exposure; format: cell-based, human; conditions: SDS; 0.01% benzalkonium chloride solution
Excerpt: Live cells are green, while dying or dead cells are orange-red. […] C.

reconstructed corneas [7] = assay: Responses of reconstructed corneas to aqueous test chemicals (wound, corneal transparency); format: cell-based, human; conditions: 100 μl centrally for 10 min, washed off with saline, re-cultured 3 days; 10% SDS, 0.01% benzalkonium chloride solution
Method: Each cornea was exposed centrally to 100 μl of the test chemical for 10 min, after which the chemical was washed off with saline and the corneas were re-cultured for a further 3 days. The saline-treated cornea served as the control.

O=C(O)c1ccccc1Nc1cccc(C(F)(F)F)c1 [FFA, flufenamic acid]
voltages at which a second FFA-stimulated K^+ current is active [1]: greater than +10 mV
activation voltage of the FFA-stimulated current (I-V plot) ([1]; 100 μM FFA): about −60 mV
increase in the maximum outward current ([1]; 100 μM FFA in NaCl Ringer's bath, versus cells not exposed): more than 10 fold
Erev for the TEA-sensitive FFA-activated current ([1]; 100 μM FFA with and without 3 mM TEA, digital subtraction of instantaneous tail currents): about −80 mV
reversibility of the FFA response ([1]; 100 μM FFA, same cell): reversible and repeatable

CC[N+](CC)(CC)CC [TEA, tetraethylammonium]
effect on the FFA-activated current ([1]; 100 μM FFA): blocked

[Ba+2] [barium]
effect on the FFA-activated current ([1]; 100 μM FFA): blocked
sensitivity of the nonselective cation current [2]: not sensitive

[Gd] [gadolinium]
sensitivity of the nonselective cation current [2]: not sensitive

C[C@@H]1O[C@@H](O[C@H]2C[C@@H](O)[C@]3(CO)[C@H]4[C@H](O)C[C@]5(C)[C@@H](C6=CC(=O)OC6)CC[C@]5(O)[C@@H]4CC[C@]3(O)C2)[C@H](O)[C@H](O)[C@H]1O [ouabain, Ouabain]
change in corneal thickness (swelling) [3]: 24%

FGF-2: basic fibroblast growth factor
Response to Growth Factors, Normal Cells ([4]; FGF-2 (50 ng/ml)): Angiogenesis
Response to Growth Factors, Normal Cells ([4]; FGF-2, concentration not given): Cell death
Response to Growth Factors, Cell Lines ([5]; FGF-2 (50 ng/ml)): Angiogenesis
Response to Growth Factors, Cell Lines ([5]; FGF-2, concentration not given): Cell death

benzalkonium chloride
live-dead staining, epithelial cells (reconstructed corneas [6]): some dead and dying cells but mostly live cells
live-dead staining, stromal cells (reconstructed corneas [6]): mostly alive
penetration into the stromal compartment (reconstructed corneas [6]): little/no penetration of solution into the stromal compartment
wound / change of corneal transparency (reconstructed corneas [7]): caused wounds to the centre of the cornea

— patent US6645715B1, “Artificial cornea” (University of Ottawa, priority 1998, dated 2003)
